Test [1] addresses Paired box protein Pax-8 (Homo sapiens, UniProt Q06710). The test is described as follows: inhibitors of PAX8-driven TPO luciferase reporter, dose response, RMG-I cells, cherry-pick (AID 687027).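 Note: luciferase reporter driven by Pax8 target thyroperoxidase promoter measured by SteadyGlo luminescence.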 Format: functional, cell-based.
A short description of test [2]: HepG2 cell cytotoxicity, dose response, cytotoxicity control for Shn3 inhibitor project, CellTiter-Glo, cherry-picked (AID 624134). Format: functional, cell-based. In general terms: ATP-based viability assays read luminescence as a measure of living cells.
A short description of test [3]: LGR2 antagonists, dose response, cell-based, HEK293, CRE-luciferase reporter, cherry pick, set 2 (AID 743343).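 Note: transfected cells were stimulated with diluted bursicon conditioned medium after compound addition.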 The format is functional.
The nature of test [4]: HEK293 cell cytotoxicity, dose response, cytotoxicity control, plate reader, cherry-picked samples (AID 743446). The format is functional, cell-based.
Test [5] can be described thus: inhibitors of clade B AD8 Env fusion, dose response, cell-based, cherry-pick (AID 652062).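 Note: luciferase signal from cell-cell fusion driven by HIV-1 clade B AD8 Env; potency is for inhibitors of fusion seen as a drop in luminescence.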 The format is functional.
The test system of test [6] is A-375. The test is described as follows: MITF: Counter assay: A375 proliferation Measured in Cell-Based System Using Plate Reader - 2084-03_Inhibitor_Dose_DryPowder_Activity. [Related pubchem assays (depositor defined):AID488944]. The format is functional. The note with it: Homo sapiens.
Test [7] is described as follows: cytotoxicity in HEK-293T cells, dose response, cytotoxicity control for TCR NF-kB inhibitor project, luminescence, T-cell screen hits (AID 489026).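 Note: cells exposed to compound about 14 hours before the viability readout.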 The format is functional, cell-based.
Test [8] has as its target Luciferin 4-monooxygenase (Photinus pyralis, UniProt P08659). The test is described as follows: firefly luciferase enzyme inhibitors, dose response, biochemical, luminescence (AID 1891).
The nature of test [9]: inhibitors of HIV Env-driven cell fusion, dose response, cherry-pick (AID 652057). Format: functional, cell-based.
Test [10] in a line: Shn3 3'UTR reporter inhibitors, dose response, cell-based, Clone20 osteoblasts, firefly luciferase, cherry-picked (AID 624132).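 Note: firefly luciferase luminescence from reporter carrying the Shn3 3'UTR in osteoblasts.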 The format is functional.
A short description of test [11]: off-target signal loss in HeLa-CEM21 co-culture – HeLa F-luc CTL cells, cherry-picked, counter-screen for HIV-1 Env fusion inhibitor project, dose response (AID 652040).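 Note: potency for signal decrease marking cytotoxic or nonspecific inhibition.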 Format: functional, cell-based. A general note: The purpose of a counterscreen is to sort out artefacts and off-target activity.
Test [12] in a line: CEM21 lymphoblast cell cytotoxicity, dose response, cytotoxicity control for viral fusion inhibitor project, CellTiter-Glo luminescence, cherry-picked (AID 652042).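 Note: potency for signal decrease meaning cytotoxicity.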 The format is functional, cell-based.
Test [13] can be described thus: ZM109 Env clade C HIV-1 fusion inhibitors, dose response, HeLa effector, CEM target cells, luciferase, cherry-pick (AID 652058). The format is functional, cell-based.
Test [14] can be described thus: MC4R antagonists, dose response, counter-screen for LGR2 antagonist project, cell-based, plate reader, cherry pick (AID 743444).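 Note: transfected HEK 293 cells stimulated with alpha-MSH peptide; potency of inhibitors of the alpha-MSH evoked signal.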 Format: functional.
The target in test [15] is T1, Heat shock factor protein 1 (Mus musculus, UniProt P38532).
T1 sequence (P38532 whole entry): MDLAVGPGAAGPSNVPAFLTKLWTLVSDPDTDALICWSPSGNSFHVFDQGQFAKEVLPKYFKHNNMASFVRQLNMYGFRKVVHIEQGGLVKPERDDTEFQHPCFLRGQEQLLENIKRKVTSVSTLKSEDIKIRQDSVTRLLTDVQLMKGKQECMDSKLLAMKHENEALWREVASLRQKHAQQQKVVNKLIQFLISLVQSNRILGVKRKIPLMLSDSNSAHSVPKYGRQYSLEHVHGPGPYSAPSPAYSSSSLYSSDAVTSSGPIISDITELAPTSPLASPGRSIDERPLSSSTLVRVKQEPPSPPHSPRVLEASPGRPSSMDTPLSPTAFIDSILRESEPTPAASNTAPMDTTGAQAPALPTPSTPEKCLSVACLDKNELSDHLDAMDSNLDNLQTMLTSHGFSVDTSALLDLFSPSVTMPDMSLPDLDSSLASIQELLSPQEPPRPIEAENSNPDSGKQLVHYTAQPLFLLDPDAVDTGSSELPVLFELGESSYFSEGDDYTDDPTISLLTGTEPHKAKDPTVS
Kind of test: inhibition of MG132-induced HSE-luciferase signal, confirmation, cell-based, NIH3T3, luminescence, dose retest (AID 2382).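 Note: NIH3T3 fibroblasts with HSF1-driven luciferase reporter stressed by proteasome inhibitor MG132; luminescence from HSF1-driven luciferase expression after 8 hours of MG132 stress.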 Format: functional.

Test [16] in a line: A549 cell cytotoxicity, dose response, cytotoxicity control, plate reader, cherry-pick, antagonist series (AID 743412). Format: functional, cell-based.
Test [17] deals with T2, Microphthalmia-associated transcription factor (Homo sapiens, UniProt O75030).
T2 sequence (O75030 whole entry): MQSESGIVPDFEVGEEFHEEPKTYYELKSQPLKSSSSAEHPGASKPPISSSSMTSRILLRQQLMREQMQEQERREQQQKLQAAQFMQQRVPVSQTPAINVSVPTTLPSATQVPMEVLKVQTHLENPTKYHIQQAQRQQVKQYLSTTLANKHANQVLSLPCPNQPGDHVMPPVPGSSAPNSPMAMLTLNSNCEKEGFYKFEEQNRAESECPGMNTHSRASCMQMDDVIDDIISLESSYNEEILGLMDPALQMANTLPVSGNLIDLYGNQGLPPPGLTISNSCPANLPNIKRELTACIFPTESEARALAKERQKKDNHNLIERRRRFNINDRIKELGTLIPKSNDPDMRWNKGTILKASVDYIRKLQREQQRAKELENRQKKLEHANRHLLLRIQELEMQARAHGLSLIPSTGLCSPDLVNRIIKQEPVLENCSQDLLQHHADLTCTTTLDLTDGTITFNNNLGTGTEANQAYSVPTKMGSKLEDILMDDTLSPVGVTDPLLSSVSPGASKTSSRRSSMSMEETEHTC
The test is described as follows: TRPM1 promoter luciferase signal decrease, dose response, MITF inhibitor project, cell-based, SK-MEL-5, cherry-picked, set 3 (AID 493073).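 Note: SK-MEL-5 melanoma cells with luciferase driven by the MITF target TRPM1 promoter.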 The format is functional.

Test [18] is described as follows: HepG2 cell cytotoxicity, dose response, cytotoxicity control, plate reader, cherry-pick, antagonist series (AID 743416). Format: functional, cell-based.
The nature of test [19]: non-specific cell cytotoxicity, dose response, cytotoxicity control for PAX8 inhibitor project, plate reader, dry powder samples (AID 743021). The format is functional, cell-based.
Test [20] in a line: Luminescence Cell-Based Dose Confirmation HTS to Identify Inhibitors of Platelet Dense Granule Release. [Related pubchem assays: 1663 (Primary HTS), 1678 (Summary of Project)]. Format: functional.
For test [21], the target named is T3, Alkaline phosphatase, tissue-nonspecific isozyme (Homo sapiens, UniProt P05186).
T3 sequence (P05186 whole entry): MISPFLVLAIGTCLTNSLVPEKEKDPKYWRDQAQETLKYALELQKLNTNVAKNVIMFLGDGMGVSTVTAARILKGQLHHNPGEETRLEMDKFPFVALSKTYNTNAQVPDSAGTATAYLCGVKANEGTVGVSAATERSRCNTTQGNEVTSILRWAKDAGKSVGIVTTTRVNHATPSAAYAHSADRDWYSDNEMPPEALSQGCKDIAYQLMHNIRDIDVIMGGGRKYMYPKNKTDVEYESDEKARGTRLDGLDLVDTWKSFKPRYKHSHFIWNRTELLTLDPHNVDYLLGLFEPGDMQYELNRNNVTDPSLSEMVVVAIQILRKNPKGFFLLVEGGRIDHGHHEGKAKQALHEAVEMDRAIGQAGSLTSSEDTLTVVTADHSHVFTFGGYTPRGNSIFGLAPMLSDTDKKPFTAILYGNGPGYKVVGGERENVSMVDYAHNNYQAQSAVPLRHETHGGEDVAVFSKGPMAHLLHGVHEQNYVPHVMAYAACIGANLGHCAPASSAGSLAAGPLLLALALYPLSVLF
The test is described as follows: inhibition of tissue-nonspecific alkaline phosphatase – biochemical, dose response (AID 488882). Format: functional.

Test [22] addresses T4, Intestinal-type alkaline phosphatase (Homo sapiens, UniProt P09923). The test is described as follows: Dose Response confirmation of uHTS hits from a small molecule inhibitors of human intestinal alkaline phosphatase via a luminescent assay. [Related pubchem assays (depositor defined):AID2544, AID2574]. Format: functional.
The target in test [23] is T4, Intestinal-type alkaline phosphatase. The test is described as follows: human IAP inhibitors, dose response, biochemical, luminescent, uHTS hits, set 2 (AID 488793). The format is functional.
The target in test [24] is Intestinal-type alkaline phosphatase (Mus musculus, UniProt P24822). Kind of test: PubChem AID 488874. The format is functional.
Test [25] has as its target Tumor necrosis factor (Homo sapiens, UniProt P01375). Kind of test: TNFa-triggered NF-kB activation inhibitors, SAR follow-up, cell-based, revised (AID 2337). The format is functional.
The subject of test [26] is HEK293. Kind of test: cells. The conditions noted are these: Homo sapiens.
Test [27] addresses Nucleotide-binding oligomerization domain-containing protein 1 (Homo sapiens, UniProt Q9Y239). Kind of test: NOD1 signaling inhibitors, SAR follow-up, revised (AID 2333). Format: functional.
Test [28] is described as follows: inhibitors of Trypanosoma cruzi host-cell infection, confirmation, beta-gal luminescence, NIH3T3 host cells (AID 2630). Format: functional, cell-based. The conditions noted are these: Mus musculus.
Test [29] deals with Trypanosoma cruzi. The test is described as follows: growth inhibition of intracellular Trypanosoma cruzi, dose response, cell-based, plate reader, dry powder, set 3 (AID 493197). The format is functional.
The target of test [30] is CAAX prenyl protease 1 (Saccharomyces cerevisiae S288c, UniProt P47154). The test is described as follows: Ste24 protease inhibitors, dose response, biochemical, S. cerevisiae, plate reader, cherry-pick (AID 488815).
In test [31] the target is Trypsin (Sus scrofa, UniProt P00761). The test is described as follows: porcine trypsin inhibitors, dose response, selectivity assay for Rce1 protease inhibitor project, biochemical, quenched peptide fluorescence, cherry-pick (AID 488789).
The target of test [32] is CAAX prenyl protease 2 (Homo sapiens, UniProt Q9Y256). Kind of test: human Rce1 protease inhibitors, dose response, biochemical, yeast membranes, quenched-peptide fluorescence, cherry-pick (AID 588849).

The record followed here is ChEMBL document CHEMBL1201862, “PubChem BioAssay data set” (2004).

Calls of active or inactive are those of the source.

T4 sequence (P09923 whole entry): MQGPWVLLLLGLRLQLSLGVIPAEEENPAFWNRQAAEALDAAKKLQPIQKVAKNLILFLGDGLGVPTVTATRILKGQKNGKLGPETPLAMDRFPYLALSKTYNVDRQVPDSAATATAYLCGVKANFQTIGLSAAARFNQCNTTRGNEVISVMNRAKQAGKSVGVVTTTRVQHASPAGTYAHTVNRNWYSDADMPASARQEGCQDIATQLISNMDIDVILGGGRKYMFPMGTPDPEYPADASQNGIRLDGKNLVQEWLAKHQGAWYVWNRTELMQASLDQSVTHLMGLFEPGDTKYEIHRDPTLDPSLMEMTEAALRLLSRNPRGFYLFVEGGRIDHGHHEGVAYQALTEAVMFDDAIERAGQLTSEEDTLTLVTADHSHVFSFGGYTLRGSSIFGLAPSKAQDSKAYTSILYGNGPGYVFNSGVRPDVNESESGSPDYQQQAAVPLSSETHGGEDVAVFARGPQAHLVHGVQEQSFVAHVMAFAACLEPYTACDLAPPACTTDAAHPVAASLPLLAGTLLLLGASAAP
Nucleotide-binding oligomerization domain-containing protein 1, sequence (Q9Y239 whole entry, the tested form may be a part): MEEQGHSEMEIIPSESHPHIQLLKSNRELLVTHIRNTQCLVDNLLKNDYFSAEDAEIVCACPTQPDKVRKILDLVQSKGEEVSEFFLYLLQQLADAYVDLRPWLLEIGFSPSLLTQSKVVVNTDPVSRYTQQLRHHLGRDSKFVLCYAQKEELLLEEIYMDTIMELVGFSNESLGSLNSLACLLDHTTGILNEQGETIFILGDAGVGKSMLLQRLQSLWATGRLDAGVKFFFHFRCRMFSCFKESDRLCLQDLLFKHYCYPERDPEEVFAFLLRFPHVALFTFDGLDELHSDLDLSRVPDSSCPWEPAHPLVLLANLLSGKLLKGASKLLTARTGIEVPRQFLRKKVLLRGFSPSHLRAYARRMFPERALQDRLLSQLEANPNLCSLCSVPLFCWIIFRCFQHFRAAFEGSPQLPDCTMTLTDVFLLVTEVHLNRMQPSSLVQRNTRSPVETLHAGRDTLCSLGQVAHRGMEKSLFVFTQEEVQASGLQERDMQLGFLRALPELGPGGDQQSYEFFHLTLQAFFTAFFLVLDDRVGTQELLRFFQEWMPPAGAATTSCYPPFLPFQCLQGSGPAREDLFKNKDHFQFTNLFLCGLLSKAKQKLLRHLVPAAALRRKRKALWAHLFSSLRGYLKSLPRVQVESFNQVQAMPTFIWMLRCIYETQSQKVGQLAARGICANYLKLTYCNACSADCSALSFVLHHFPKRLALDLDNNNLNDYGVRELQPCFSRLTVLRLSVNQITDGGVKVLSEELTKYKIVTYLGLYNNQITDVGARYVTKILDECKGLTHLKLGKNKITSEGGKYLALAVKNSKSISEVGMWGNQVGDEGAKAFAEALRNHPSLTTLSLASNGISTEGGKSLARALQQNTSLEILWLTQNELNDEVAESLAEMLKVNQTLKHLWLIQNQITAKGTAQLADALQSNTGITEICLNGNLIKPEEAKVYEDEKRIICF
Trypsin, sequence (P00761 whole entry): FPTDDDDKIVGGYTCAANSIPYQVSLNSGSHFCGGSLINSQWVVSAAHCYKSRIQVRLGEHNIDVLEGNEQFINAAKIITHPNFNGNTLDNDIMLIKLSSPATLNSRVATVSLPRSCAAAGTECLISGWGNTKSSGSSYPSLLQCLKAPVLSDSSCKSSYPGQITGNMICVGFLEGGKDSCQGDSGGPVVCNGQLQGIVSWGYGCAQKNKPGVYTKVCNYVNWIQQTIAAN
CAAX prenyl protease 2, sequence (Q9Y256 whole entry): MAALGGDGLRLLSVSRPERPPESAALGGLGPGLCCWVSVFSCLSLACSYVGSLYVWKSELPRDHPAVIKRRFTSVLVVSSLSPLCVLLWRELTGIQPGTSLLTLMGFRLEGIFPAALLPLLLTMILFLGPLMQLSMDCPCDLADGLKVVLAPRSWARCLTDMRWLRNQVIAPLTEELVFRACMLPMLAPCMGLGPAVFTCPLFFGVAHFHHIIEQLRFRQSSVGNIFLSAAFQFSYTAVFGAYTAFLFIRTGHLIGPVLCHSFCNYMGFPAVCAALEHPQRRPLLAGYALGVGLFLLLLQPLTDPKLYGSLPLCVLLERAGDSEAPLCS
CAAX prenyl protease 1, sequence (P47154 whole entry): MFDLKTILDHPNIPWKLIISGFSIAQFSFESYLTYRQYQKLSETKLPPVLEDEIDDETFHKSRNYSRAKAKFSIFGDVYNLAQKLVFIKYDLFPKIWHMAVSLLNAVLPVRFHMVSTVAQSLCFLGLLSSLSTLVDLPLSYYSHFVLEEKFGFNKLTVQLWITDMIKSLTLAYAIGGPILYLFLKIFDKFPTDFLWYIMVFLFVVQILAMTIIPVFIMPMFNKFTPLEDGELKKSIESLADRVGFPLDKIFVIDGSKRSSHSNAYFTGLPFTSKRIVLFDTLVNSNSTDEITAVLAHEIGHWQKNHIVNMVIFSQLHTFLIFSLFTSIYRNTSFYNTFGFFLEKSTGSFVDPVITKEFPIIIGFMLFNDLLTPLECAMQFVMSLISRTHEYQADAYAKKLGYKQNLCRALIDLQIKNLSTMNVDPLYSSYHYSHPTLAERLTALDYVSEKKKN
Paired box protein Pax-8, sequence (Q06710 whole entry): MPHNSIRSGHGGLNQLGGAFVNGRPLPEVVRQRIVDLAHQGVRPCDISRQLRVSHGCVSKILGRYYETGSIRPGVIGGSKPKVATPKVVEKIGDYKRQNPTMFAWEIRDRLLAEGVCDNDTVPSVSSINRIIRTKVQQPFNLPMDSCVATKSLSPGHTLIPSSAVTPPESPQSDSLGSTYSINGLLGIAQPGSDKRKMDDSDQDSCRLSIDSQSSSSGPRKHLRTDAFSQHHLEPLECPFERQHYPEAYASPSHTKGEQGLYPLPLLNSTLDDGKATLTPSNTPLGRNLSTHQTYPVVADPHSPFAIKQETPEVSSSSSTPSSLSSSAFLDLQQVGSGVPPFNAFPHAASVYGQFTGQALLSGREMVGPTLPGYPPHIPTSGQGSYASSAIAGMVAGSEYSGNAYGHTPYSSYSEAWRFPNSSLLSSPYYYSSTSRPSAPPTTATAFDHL
Intestinal-type alkaline phosphatase (Mus musculus, UniProt P24822), sequence (P24822 whole entry): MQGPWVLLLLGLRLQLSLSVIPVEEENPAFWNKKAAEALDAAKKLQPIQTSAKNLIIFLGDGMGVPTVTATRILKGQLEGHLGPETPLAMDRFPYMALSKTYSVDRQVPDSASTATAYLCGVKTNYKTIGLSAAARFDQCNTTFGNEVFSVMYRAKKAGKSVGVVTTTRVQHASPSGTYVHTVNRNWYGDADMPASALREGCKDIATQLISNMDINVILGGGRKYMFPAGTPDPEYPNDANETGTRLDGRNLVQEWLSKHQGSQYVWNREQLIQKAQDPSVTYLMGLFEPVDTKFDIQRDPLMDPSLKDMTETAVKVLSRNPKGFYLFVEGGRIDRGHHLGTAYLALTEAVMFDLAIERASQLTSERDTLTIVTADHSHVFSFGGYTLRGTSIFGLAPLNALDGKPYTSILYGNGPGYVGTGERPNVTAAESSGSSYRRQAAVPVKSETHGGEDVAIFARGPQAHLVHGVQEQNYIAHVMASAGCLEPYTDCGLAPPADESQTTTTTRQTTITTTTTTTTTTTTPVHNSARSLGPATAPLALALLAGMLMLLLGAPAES
Luciferin 4-monooxygenase, sequence (P08659 whole entry, the tested form may be a part): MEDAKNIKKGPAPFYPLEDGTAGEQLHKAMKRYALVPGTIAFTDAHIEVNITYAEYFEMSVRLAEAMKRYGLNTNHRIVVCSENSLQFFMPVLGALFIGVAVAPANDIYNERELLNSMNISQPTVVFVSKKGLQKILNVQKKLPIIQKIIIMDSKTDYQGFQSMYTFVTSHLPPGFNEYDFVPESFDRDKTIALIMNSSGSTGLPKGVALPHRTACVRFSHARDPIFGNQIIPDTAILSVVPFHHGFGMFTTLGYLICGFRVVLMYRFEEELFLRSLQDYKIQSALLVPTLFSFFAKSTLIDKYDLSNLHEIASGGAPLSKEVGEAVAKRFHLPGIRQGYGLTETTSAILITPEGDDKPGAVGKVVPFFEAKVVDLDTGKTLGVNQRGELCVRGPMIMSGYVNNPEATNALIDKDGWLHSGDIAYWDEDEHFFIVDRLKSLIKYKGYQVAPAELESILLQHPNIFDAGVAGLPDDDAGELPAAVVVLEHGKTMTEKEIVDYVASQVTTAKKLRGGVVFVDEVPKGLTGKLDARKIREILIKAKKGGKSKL
Tumor necrosis factor, sequence (P01375 whole entry): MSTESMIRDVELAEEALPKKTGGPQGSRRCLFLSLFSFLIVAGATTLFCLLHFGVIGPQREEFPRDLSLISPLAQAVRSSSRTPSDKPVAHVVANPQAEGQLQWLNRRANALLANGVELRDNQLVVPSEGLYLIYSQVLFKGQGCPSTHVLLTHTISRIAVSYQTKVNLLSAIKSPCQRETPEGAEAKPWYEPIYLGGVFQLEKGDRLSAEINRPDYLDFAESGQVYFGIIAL

In general, AC50 refers to the midpoint of the concentration-response curve, whichever way the signal moves. In general, IC50 refers to the concentration that gives 50% inhibition. As usually defined, the EC50 is the concentration needed to bring the measured effect to its halfway point. For `C=CCn1c(C)cc(C2=NN=C(NCC)SC2)c1C`, the AC50 in [1] was 267 nM (active); in [2], 26 µM (active); in [3] it was < 68 nM (active); in [4] it was 14.5 µM (active); in test [5], 359 nM (active); in test [6] it was 25.7 µM (active). In addition, the AC50 is 295 nM (active) in test [9]; < 260 nM (active) in test [10]; 554 nM (active) in [11]; 34.7 µM (active) in test [12]; 2.94 µM (active) in test [13]; < 68 nM (active) in [14]. For the same compound, the AC50 in [16] is 11.7 µM (active); in [17], 56 nM (active); in test [18], 3.64 µM (active); in test [19], 8.07 µM (active). Also, in [7], the IC50 is > 80 µM (inactive). The values for the EC50 in test [8], in [15] and in test [20] were 5.03 µM (active), < 160 nM (active) and 2.02 µM (active), respectively.

Regarding `O=C(/C=C/c1ccccc1O)c1ccco1`, the IC50 in test [21] is 71.8 µM (active); in test [22] it was 47.6 µM (inactive); in test [23], 75.8 µM (active); in test [24] it was 62.9 µM (active).

For the compound `COc1ccc(N2CCN(S(=O)(=O)c3ccc4c(c3)CC(C)N4C(C)=O)CC2)cc1` (configuration not stated), the IC50 is 4.3 µM (active) in test [25], > 20 µM (inactive) in test [26] and 3.63 µM (active) in [27].

With `COc1ccc(CN2CCCC(C(=O)N3CCCC3)C2)c(OC)c1OC` (configuration not stated), the EC50 in test [28] was 42 nM (active). In addition, the AC50 in [29] is 1.01 µM (active).

Regarding `CCN(CC)CCn1c2ccccc2c2cnc(/N=C/N(C)C)c(C#N)c21`, the figures for the AC50 in test [30], in test [31] and in test [32] were 4.5 µM (active), 18 µM (active) and 11.4 µM (active), respectively.
